Assay results reported in US9969695B2, “N-substituted imidazole carboxylic ester chiral compound containing an ether side chain, its preparation and application” (WEST CHINA HOSPITAL, SICHUAN UNIVERSITY, priority 2013, dated 2018).
“And” between values parts separate entries of the source, which are not always exact repeats. Equal values may be shown once. Where a name gives a salt, the structure may show the parent alone. Read-outs that look alike come from different tables or passages of the source.

Tests used:
Assay type in all cases: in vivo
[1] = test system: self-synthesis of adrenocortical hormone; assay: Increase degree of cortical hormone (cortisol, corticosterone) in blood serum after ACTH stimulation, ELISA; settings: Beagle dogs; for Increase degree of corticosterone / Increase degree of cortisol: 2ED50, dexamethasone baseline, 1 h after ACTH
Protocol: Male Beagle dogs (10±2 kg) were selected as an experimental animal. After administration, the contents of corticosterone and cortisol in the blood serum of the Beagle dogs were determined by the ELISA kit and the enzyme-labelled instrument. The 20 Beagle dogs were divided into five groups, with four dogs in each group. After respective administration of dexamethasone (0.01 mg/kg), the level of adrenal cortex in the dog body was lowered to the baseline, and those levels of corticosterone and cortisol at this time were used as the base value (baseline). […] After 10 min, ACTH (adrenocortical hormone) was given to stimulate and cause an increased level of cortex in the dog body. One hour after administration of ACTH, both corticosterone and cortisol levels in the blood serum of the Beagle dogs were determined, and the ratio of the peak value to the base value of the cortex levels was calculated. This ratio indicated the increase degree of the cortical hormone. A greater degree indicated a less inhibitory effect of the medicine on the cortical hormone. After administration, compounds of Formulas (I), (IV) and (V), DMSO, and the increase degree of the cortical hormone followed by stimulation of ACTH are shown in the following table:
Male Beagle dogs (10±2 kg) were selected as an experimental animal. After administration, the contents of corticosterone and cortisol in the blood serum of the Beagle dogs were determined by the ELISA kit and the enzyme-labelled instrument. The 20 Beagle dogs were divided into five groups, with four dogs in each group. After respective administration of dexamethasone (0.01 mg/kg), the level of adrenal cortex in the dog body was lowered to the baseline, and the levels of corticosterone and cortisol at this time were used as the baseline. Then, the equivalent doses (2ED50) of the compounds of Formula (I) hydrochloride (3.62 mg/kg), hydrobromide (3.86 mg/kg), trifluoroacetate (4.66 mg/kg), the positive control medicine Etomidate-Lipuro® (0.9 mg/kg), and the equal-volume of solvent DMSO were respectively administrated into the dogs of the five groups. After 10 min, ACTH was given to stimulate and cause the cortex levels increase in the dog body. One hour after administration of ACTH, both the cortical hormone levels were determined, and the ratio of the peak value to the baseline of cortex levels was calculated. This ratio indicated the increase degree of the cortical hormone. A greater degree of increase indicated a less inhibitory effect of the medicine on the cortical hormone. After administrations, the three salts of the Formula (I) compound, DMSO, the increase degree of the cortical hormone followed by stimulation of ACTH are shown in the following table: […]

Male SD rats [2] = assay: Onset time, last time, palinesthesia time and adverse effects at 2ED50 via the rat tail vein; settings: for Incidence of adverse effect: Anal sphincter dilatation / Incidence of adverse effect: Bucking / Incidence of adverse effect: Hindlimb stiffness / Incidence of adverse effect: Muscle tremor / Incidence of adverse effect: Tic of limbs / Incidence of adverse effect: Vomiting / Onset time: 10 rats per group; for Last time: disappearance to recovery of body-righting reflex; for Palinesthesia tune / Palinesthesia time: recovery to full recovery of body-righting reflex
Protocol: (§1) Male SD rats (250˜300 g) were used as an experimental animal, and 50% effective dose (ED50) was determined by the sequential method. Three compounds were dissolved in a solvent of DMSO, and etomidate was used as the commercially-available formulation (B BRAUN, Etomidate-Lipuro®, 20 mg/10 mL). Based on the initial dose of 1 mg/kg, other dosages were adjusted as the ratio of 0.8, and the ED50 values of the three compounds and etomidate were determined. Extinction time ≥30 s for the rat body-righting reflex was the positive marker while no disappearance of the righting reflex was considered invalid. Based on the experimental results, four cross-points were formed, and the ED50 values were calculated. […] Then, the respective 2ED50 values of the three compounds and etomidate were taken in an equivalent dose, which were administered via the rat tail vein. The preliminary effects were evaluated in the four rat groups, which were given the three compounds of Formulas (I), (IV), (V) and etomidate, respectively, with 10 rats in each group. […] The last time of the Formula (I) compound and etomidate was 5-6 min, but the last time of the Formulas (IV) and (V) compounds was 10-20 min. […] DMSO had no pharmacological effects, and no adverse effects were observed. The onset time, the last time, and the adverse effects (types, incidence rates) induced by the three compounds and etomidate are shown in the following table:
(§2) Male SD rats (250˜300 g) were used as an experimental animal, and 50% effective dose (ED50) was determined by the sequential method. Hydrochlorides of the three compounds were dissolved in the solvent of normal saline, and etomidate was used as the commercially-available formulation (B BRAUN, Etomidate-Lipuro®, 20 mg/10 mL). The initial dose was 1 mg/kg, and the ratio of dosage variation was 0.8, which was applied in the determination of ED50 values of Formula (I) hydrochloride, Formula (I) hydrobromide, Formula (I) trifluoroacetate, and etomidate. Extinction time (≥30 s) of the rat body-righting reflex was the positive marker while no disappearance of the reflex was considered invalid. Based on the experimental results, four cross-points were formed, and then ED50 values were calculated. […] Then, the respective 2ED50 values of the three compounds and etomidate were taken in an equivalent dose, which were administered via the rat tail vein. The preliminary effects were evaluated in the four rat groups, which were given the three compounds of Formulas (I) hydrochloride, Formula (I) hydrobromide, Formula (I) trifluoroacetate, and etomidate, respectively, with 10 rats in each group. […] Palinesthesia time was in arrange of 5-10 min. During the test period, no significant difference was found in the types and the incidence rates of adverse effects in each group. DMSO had no pharmacological effects, and no adverse effect was found. The onset time, the last time, and the types and the incidence rates of adverse effects induced by the three salt compounds and etomidate are shown in the following table: […]

Male SD rats [3] = assay: ED50 by the sequential method, extinction of rat body-righting reflex; settings: etomidate as Etomidate-Lipuro, extinction of body-righting reflex ≥30 s; for ED50: Rattus norvegicus, read-out: 50% effective dose (ED50)
Protocol: as §1, §2

[4] = Example 10, ratio of peak value to base value
[5] = Example 11, ratio of peak value to baseline
[6] = Example 9, 2ED50 via tail vein, listed as Formula (I) hydrobromide
[7] = Example 9, 2ED50 via tail vein, listed as Formula (I) hydrochloride
[8] = Example 9, 2ED50 via tail vein, listed as Formula (I) trifluoroacetate

Row | Compound | Increase degree of corticosterone [1, 4] | Increase degree of cortisol [1, 4] | sedative-hypnotic and general anesthetic effects (conclusion in words) (Male SD rats [2]; Example 8) | types and incidence rates of the adverse effects (in words) (Male SD rats [2]; Example 8, 2ED50 via tail vein) | Incidence of adverse effect: Anal sphincter dilatation (Male SD rats [2]; Example 8, 2ED50 via tail vein) | Incidence of adverse effect: Bucking (Male SD rats [2]; Example 8, 2ED50 via tail vein) | Incidence of adverse effect: Hindlimb stiffness (Male SD rats [2]; Example 8, 2ED50 via tail vein) | Incidence of adverse effect: Muscle tremor (Male SD rats [2]; Example 8, 2ED50 via tail vein) | Onset time (Male SD rats [2]; Example 8, 2ED50 via tail vein) | Last time (Male SD rats [2]; Example 8, 2ED50 via tail vein) [min] | Palinesthesia tune (Male SD rats [2]; Example 8, 2ED50 via tail vein) [min] | ED50 (Male SD rats [3]; Example 8, compounds in DMSO) [mg/kg] | cortical hormone increase after stimulation by ACTH (conclusion in words) ([1]; Example 11) | Increase degree of corticosterone [1, 5] | Increase degree of cortisol [1, 5] | sedative-hypnotic and general anesthetic effects (conclusion in words) (Male SD rats [2]; Example 9) | Incidence of adverse effect: Muscle tremor (Male SD rats [2]; Example 9, 2ED50 via tail vein) | Onset time (Male SD rats [2]; Example 9, 2ED50 via tail vein) | Last time (Male SD rats [2]; Example 9, 2ED50 via tail vein) [min] | Palinesthesia time (Male SD rats [2]; Example 9, 2ED50 via tail vein) [min] | also measured
1 | COCCOC(=O)c1cncn1C(C)c1ccccc1 (racemic) [Compound V] | 3.18 ± 1.15 | 5.17 ± 2.28 | lower potency, elongated onset time, extended last time, and increased types and incidence rates of adverse effects | obviously increased | (2/10), 20%; | Bucking (4/10), 40% | 20%; | 60%; | a little slower action and 1.0 ± 0.6 min | 10.8 ± 3.5 | 15.1 ± 2.6 | 10.4 | – | – | – | – | – | – | – | – | Incidence of adverse effect: Tic of limbs (Male SD rats [2]; Example 8, 2ED50 via tail vein): Tic of limbs (5/10), 50%;; Incidence of adverse effect: Vomiting (Male SD rats [2]; Example 8, 2ED50 via tail vein): Vomiting (5/10), 50%;
2 | COCCOC(=O)c1cncn1[C@@H](C)c1ccccc1 [Compound IV] | 1.19 ± 0.87 | 3.32 ± 2.36 | lower potency, elongated onset time, extended last time, and increased types and incidence rates of adverse effects | obviously increased | (5/10), 50%; | Bucking (6/10), 60% | 50%; | 100%; | 2.2 ± 0.8 min | 20.3 ± 4.6 | 21.4 ± 2.3 | 7.46 | – | – | – | – | – | – | – | – | Incidence of adverse effect: Tic of limbs (Male SD rats [2]; Example 8, 2ED50 via tail vein): Tic of limbs (7/10), 70%;; Incidence of adverse effect: Vomiting (Male SD rats [2]; Example 8, 2ED50 via tail vein): Vomiting (7/10), 70%;; Onset time (Male SD rats [2]; Example 8, 2ED50 via tail vein, listed as Formula (IV)): a little slower action
3 | COCCOC(=O)c1cncn1[C@H](C)c1ccccc1 [Compound I] | 11.46 ± 4.30 | 19.88 ± 19.8 | good sedative-hypnotic and general anesthetic effects | – | – | – | – | 70% | Immediate | 5.8 ± 0.9 | 4.8 ± 1.3 | 2.1 | – | – | – | – | – | – | – | – | inhibition on cortical hormone (conclusion in words) ([1]; Example 10, after stimulation by ACTH): obviously reduced when compared with that of the control medicine etomidate; Onset time (Male SD rats [2]; Example 8, 2ED50 via tail vein, listed as Formula (I) compound): immediate action
4 | COCCOC(=O)c1cncn1[C@H](C)c1ccccc1 [Hydrobromide of Formula (I) compound] | – | – | – | – | – | – | – | – | – | – | – | – | lower than that in the blank group of the dogs, but obviously higher than that in the positive medicine etomidate group of the dogs | 12.36 ± 6.65 | 29.14 ± 11.86 | good sedative-hypnotic and general anesthetic effects | 50% | Immediate | 4.6 ± 1.1 | 5.8 ± 1.2 | Onset time (Male SD rats [2]; [6]): immediate action; Last time (Male SD rats [2]; [6]): 5 to 6 min; 50% effective dose (ED50) (Male SD rats [3]; Example 9, salts in normal saline, listed as Formula (I) hydrobromide): 3.09 mg/kg
5 | COCCOC(=O)c1cncn1[C@H](C)c1ccccc1 [Hydrochloride of Formula (I) compound] | – | – | – | – | – | – | – | – | – | – | – | – | lower than that in the blank group of the dogs, but obviously higher than that in the positive medicine etomidate group of the dogs | 18.14 ± 5.66 | 25.36 ± 14.77 | good sedative-hypnotic and general anesthetic effects | 60% | Immediate | 5.8 ± 0.7 | 5.6 ± 1.8 | Onset time (Male SD rats [2]; [7]): immediate action; Last time (Male SD rats [2]; [7]): 5 to 7 min; ED50 (Male SD rats [3]; Example 9, salts in normal saline): 2.58 mg/kg
6 | COCCOC(=O)c1cncn1[C@H](C)c1ccccc1 [Trifluoroacetate of Formula (I) compound] | – | – | – | – | – | – | – | – | – | – | – | – | lower than that in the blank group of the dogs, but obviously higher than that in the positive medicine etomidate group of the dogs | 13.64 ± 4.22 | 26.14 ± 13.89 | good sedative-hypnotic and general anesthetic effects | (5/10), 50% | Immediate | 3.6 ± 1.3 | 8.2 ± 3.3 | Onset time (Male SD rats [2]; [8]): immediate action; Last time (Male SD rats [2]; [8]): 4 to 7 min; 50% effective dose (ED50) (Male SD rats [3]; Example 9, salts in normal saline, listed as Formula (I) trifluoroacetate): 3.61 mg/kg
